SMILES	logP
CCOc1ncc(-c2ccncc2)cc1C#N	2.59
CCC(CO)Nc1ncc(-c2ccncc2)cc1C#N (centres undefined)	1.04
N#Cc1cc(-c2ccncc2)cnc1NCCCCO	1.93
CC(O)COc1ncc(-c2ccncc2)cc1C#N (centres undefined)	1.65
Cc1nc(N2CCNCC2)c(C#N)cc1-c1ccccc1	3.15
COCCCNc1ncc(-c2ccncc2)cc1C#N	2.03

The remaining lines, values ahead:

logP	SMILES
2.59	CC(=O)OCCNc1ccc(-c2ccncc2)c(C)n1
2	CC(=O)OCCNc1ccc(-c2ccncc2)cn1
2.48	CC(=O)OCCCOc1ccc(-c2ccncc2)cn1
2.47	CCC(=O)OCCNc1ccc(-c2ccncc2)cn1
2.41	COc1nc(C)c(-c2ccncc2)cc1C#N
4.06	O=C(OCCCNc1ccc(-c2ccncc2)cn1)c1ccccc1
1.91	Cc1nc(NCCN)c(C#N)cc1-c1ccncc1
1.92	CC(=O)OCCOc1ccc(-c2ccncc2)cn1

— the OPERA property sets (Mansouri et al. 2018)
